Experimental data from patent US10800755B2, “2,6-disubstituted pyridine derivative” (Sumitomo Dainippon Pharma Co., Ltd., priority 2017, dated 2020).

Legend:
human 5-HT1A receptor = human 5-HT1A receptor (Homo sapiens (Human), UniProt P08908); experiment: Test 1: agonistic activity for human 5-HT1A receptor (aequorin/Gα16 luminescence in CHO-K1 cell); format: cell-based
Method in brief: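 Aequorin and Gα16 transiently co-expressed with each receptor in CHO-K1 cells, cultured 24 h at 37 °C. Compounds added from DMSO solution; agonism read as change in luminescence.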

[1] = Test 3-2: metabolic stability test of human liver microsome (0.5 or 1.0 mg/mL); format: in vitro ADME; settings: test compound 0.1 μmol/L, 37° C., 30 minutes
Procedure: Test 3-2: Metabolic Stability Test of Human Liver Microsome
In order to evaluate the metabolic stability of human liver microsomes more precisely, the stability of the present compounds for human liver microsome metabolism was evaluated with a suitable concentration of human liver microsome, as mentioned below. The used human liver microsome was obtained from Xenontech. Human liver microsome, NADPH, and each test compound were mixed in 25 mmol/L phosphate buffer solution (pH 7.4) to adjust each concentration as shown below, and the mixture was incubated at 37° C. for 30 minutes. • human liver microsome: 0.5 or 1.0 mg/mL • NAPDH: 3.2 mmol/L • test compound: 0.1 μmol/L
The residual ratio of the test compound in each sample after the incubation for 30 minutes was measured with a LC-MS, and the metabolic stability of human liver microsome was calculated about each test compound with the following formula. Metabolic stability of human liver microsome (mL/min/mg protein)=−LN (residual ratio)/“reaction time”/“concentration of human liver microsome”

[2] = Test 4-1: predictive test of human half-life (monkey distribution volume, serum unbound fraction, Test 3-1 stability); settings: in vivo, predicted using Test 3-1 metabolic stability
Procedure: Test 4-1: Predictive Test of Human Half-Life
0.01 mol/L of the present compound in aqueous hydrochloric acid solution was parenterally administered to cynomolgus monkey. 5 minutes, 15 minutes, 30 minutes, 1 hour, 2 hours, 4 hours, 6 hours, and 24 hours after the administration, the blood was collected. The plasma was obtained from the collected blood, the drug concentration in the plasma was measured with a LC-MS, and the monkey distribution volume was calculated from the transition of the concentrations. The unbound fraction rate of the present compound in serum of human and monkey was measured by equilibrium dialysis method.
Using the monkey distribution volume, the unbound fraction rate in serum of human and monkey, and the result of the metabolic stability of human liver microsome which was obtained in Test 3-1, the half-life in human was calculated according to the formula below. “Human distribution volume”=“monkey distribution volume”×“unbound fraction rate in serum of human”/“unbound fraction rate in serum of monkey” “Human hepatic clearance”=(“human hepatic blood flow”×“unbound fraction rate in serum of human”×56.7×“metabolic stability of human liver microsome”)/(“human hepatic blood flow”+“unbound fraction rate in serum of human”×56.7×“metabolic stability of human liver microsome”) “Half-life in human”=0.693×“human distribution volume”/“human hepatic clearance”

human D2 receptor = human D2 receptor (Homo sapiens (Human), UniProt P14416); experiment: Test 2: binding activity to human D2 receptor ([3H] spiperone, CHO cell membrane); settings: [3H] spiperone; read-out: D2 binding affinity (Ki value)
Sequence of human D2 receptor (P14416 whole entry): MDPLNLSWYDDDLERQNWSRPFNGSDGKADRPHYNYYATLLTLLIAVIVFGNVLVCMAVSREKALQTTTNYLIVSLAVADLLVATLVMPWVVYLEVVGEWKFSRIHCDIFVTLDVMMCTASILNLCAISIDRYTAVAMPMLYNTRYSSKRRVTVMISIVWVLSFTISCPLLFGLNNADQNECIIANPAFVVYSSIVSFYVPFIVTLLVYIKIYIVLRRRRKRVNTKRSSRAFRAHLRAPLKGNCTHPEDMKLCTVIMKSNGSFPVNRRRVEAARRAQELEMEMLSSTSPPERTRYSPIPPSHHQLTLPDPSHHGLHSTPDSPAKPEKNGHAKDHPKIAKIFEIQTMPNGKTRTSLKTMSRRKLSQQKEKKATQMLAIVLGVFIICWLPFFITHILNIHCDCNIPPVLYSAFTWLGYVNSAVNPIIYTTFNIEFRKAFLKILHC

hERG channel = hERG channel (Homo sapiens (Human), UniProt Q12809); experiment: Test 5-1: activity for inhibiting hERG channel (whole-cell patch clamp, hERG-CHO cell, Qpatch); format: cell-based; settings: read-out: hERG inhibition IC50
Sequence of hERG channel (Q12809 whole entry): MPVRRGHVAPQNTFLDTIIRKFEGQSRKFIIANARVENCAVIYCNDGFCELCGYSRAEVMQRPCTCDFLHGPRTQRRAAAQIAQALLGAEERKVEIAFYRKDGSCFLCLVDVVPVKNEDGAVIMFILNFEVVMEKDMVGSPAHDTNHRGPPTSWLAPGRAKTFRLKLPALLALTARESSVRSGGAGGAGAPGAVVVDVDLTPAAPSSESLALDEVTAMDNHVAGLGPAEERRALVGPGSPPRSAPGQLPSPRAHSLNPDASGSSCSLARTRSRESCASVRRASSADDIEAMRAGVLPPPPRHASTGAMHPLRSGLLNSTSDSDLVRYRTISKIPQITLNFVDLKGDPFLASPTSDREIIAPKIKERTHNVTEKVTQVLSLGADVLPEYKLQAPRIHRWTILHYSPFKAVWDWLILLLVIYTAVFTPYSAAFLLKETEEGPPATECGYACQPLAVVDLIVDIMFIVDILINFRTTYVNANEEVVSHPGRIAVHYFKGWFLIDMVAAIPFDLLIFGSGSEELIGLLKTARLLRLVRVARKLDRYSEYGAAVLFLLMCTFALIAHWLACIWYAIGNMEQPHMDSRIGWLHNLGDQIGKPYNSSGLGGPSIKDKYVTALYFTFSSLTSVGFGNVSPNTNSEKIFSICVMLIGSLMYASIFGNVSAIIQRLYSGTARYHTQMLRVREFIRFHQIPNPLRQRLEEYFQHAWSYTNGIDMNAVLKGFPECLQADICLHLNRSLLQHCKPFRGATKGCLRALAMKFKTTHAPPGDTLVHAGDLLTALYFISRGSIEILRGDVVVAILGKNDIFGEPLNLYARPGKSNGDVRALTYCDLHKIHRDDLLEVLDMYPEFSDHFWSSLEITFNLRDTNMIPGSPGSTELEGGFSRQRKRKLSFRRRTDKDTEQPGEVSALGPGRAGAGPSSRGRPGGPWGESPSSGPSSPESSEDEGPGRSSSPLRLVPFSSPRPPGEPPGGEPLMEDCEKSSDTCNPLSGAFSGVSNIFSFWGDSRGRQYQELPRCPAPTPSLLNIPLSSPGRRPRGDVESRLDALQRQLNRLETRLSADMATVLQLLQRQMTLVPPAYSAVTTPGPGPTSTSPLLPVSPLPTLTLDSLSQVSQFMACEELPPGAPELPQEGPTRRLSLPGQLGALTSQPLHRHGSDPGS
Procedure: Test 5-1: Evaluation of Activity for Inhibiting hERG Channel
The activity of the present compound for inhibiting hERG channel was measured by whole-cell patch clamp method with auto patch clamp system, using CHO cell wherein hERG channel involved in human rapidly activating delayed rectifier potassium current (IKr) was forcibly expressed.
hERG-CHO cell purchased from ChanTest was incubated at 37° C. in a CO2 incubator, and the cell was exfoliated from the flask with trypsin to prepare a cell suspension, shortly before the hERG current measurement.
Extracellular fluid: 2 mmol/L CaCl2, 1 mmol/L MgCl2, 10 mmol/L HEPES, 4 mmol/L KCl, 145 mmol/L NaCl, 10 mmol/L glucose
Intracellular fluid: 5.4 mmol/L CaCl2, 1.8 mmol/L MgCl2, 10 mmol/L HEPES, 31 mmol/L KOH, 10 mmol/L EGTA, 120 mmol/L KCl, 4 mmol/L Na2-ATP
Test compound solution: The test compound was dissolved in DMSO by adjusting the concentration to 2 mmol/L or 20 mmol/L to prepare each test compound solution. […] (Measurement of Current Value and Data Analysis)
The cell suspension, the extracellular fluid, the intracellular fluid, and the measurement plate were set in an auto patch clamp system, and the hERG current was measured by whole-cell patch clamp method. […] Each pulse interval was 15 seconds. The data analysis was carried out with Qpatch Assay Software (Biolin Scientific). The test was carried out applying increscently 4 concentrations of each test compound, and the average of the peak tail currents that were obtained by the last 3 stimulations in each applied concentration was determined to be the evaluated data. By using the current inhibition rate for the pre-applied current at each concentration of each test compound, IC50 value was calculated by Hill equation with the software.

[3] = Test 3-1: metabolic stability test of human liver microsome (0.1 mg/mL); format: in vitro ADME; settings: test compound 0.1 μmol/L, 37° C., 30 minutes
Method in brief: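 Compound at 0.1 μmol/L incubated 30 min at 37 °C with human liver microsomes (0.1 mg/mL) and NADPH (3.2 mmol/L) in 25 mmol/L phosphate buffer, pH 7.4. Remaining parent measured by LC-MS; stability given as −ln(residual ratio)/time/microsome concentration (mL/min/mg protein).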

Sequence of human 5-HT1A receptor (P08908 whole entry): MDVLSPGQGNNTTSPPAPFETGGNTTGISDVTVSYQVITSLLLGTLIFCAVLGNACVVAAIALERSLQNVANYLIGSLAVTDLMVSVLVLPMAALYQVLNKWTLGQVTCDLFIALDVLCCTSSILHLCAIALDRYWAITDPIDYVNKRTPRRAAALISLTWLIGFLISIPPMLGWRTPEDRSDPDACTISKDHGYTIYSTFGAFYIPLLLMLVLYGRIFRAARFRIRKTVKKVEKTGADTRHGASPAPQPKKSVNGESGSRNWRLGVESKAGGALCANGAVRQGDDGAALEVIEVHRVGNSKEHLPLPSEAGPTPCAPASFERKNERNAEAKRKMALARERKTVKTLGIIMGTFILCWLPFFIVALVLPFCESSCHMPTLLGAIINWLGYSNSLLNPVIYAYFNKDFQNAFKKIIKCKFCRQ

Emax (human 5-HT1A receptor; CHO-K1, 100% = 10 μmol/L endogenous ligand): 96%
EC50 (human 5-HT1A receptor; CHO-K1 cell, aequorin luminescence): < 10 nM
Metabolic stability of human liver microsome [1]: 0.031 mL/min/mg protein
half-life [2]: 11 h
Ki (human D2 receptor): 1140 nM
Metabolic stability of human liver microsome [3]: 0.073 mL/min/mg protein
Compound: O=C(NCCN1CCC(c2cccc(C(F)(F)F)n2)CC1)C1CCC(F)(F)CC1 [Example 1, 4,4-Difluoro-N-(2-{4-[6-(trifluoromethyl)pyridin-2-yl]piperidin-1-yl}ethyl)cyclohexane-carboxamide]
IC50 (hERG channel): 2500 nM
